Assay results from patent US20260200903A1, “PHARMACEUTICAL COMPOSITION FOR AMELIORATING MALIGNANT DISEASES” (KINKI UNIVERSITY, priority 2020, published 2026).

How the values were obtained:
Format in all cases: cell-based
CD20 = CD20 expression in KMS-28BM cells, flow cytometry; details: 10 days, concentration lower than the IC50 (0.005-50 μM), compared to the positive control
Procedure: As a control, compounds untreated KMS-28BM cells were seeded in 75 cm^2 flasks and incubated for 10 days at 37° C. and 5% CO2. KMS-28BM cells were seeded into 75 cm^2 flasks and pre-cultured for 4 h. After incubation, KMS-28BM cells were treated with […], 0.05 μM M9, 0.1 μM yk-7, 0.1 μM yk-8-3, 50 μM yk-8-1, 0.5 μM M11, […], 0.005 μM M14, 0.005 μM M15, 0.005 μM M16, 0.5 μM M18, and 0.5 μM M19 at final concentrations, and incubated for 10 days at 37° C. and 5% CO2. This added amount is a concentration lower than the IC50 of the above compounds for KMS-28BM cells. After 10 days of incubation, cells were stained with anti-CD20 antibody, a B cell marker, and CD20 expression was measured using BD LSRFortessa. CCRF-SB cells were used as CD20-positive controls.
Results are shown in FIG. 21, FIG. 22, FIG. 23, and FIG. 24. The horizontal axis represents the expression level of CD20 and the vertical axis represents the number of cells.

[1] = tested on: L363 cells (myeloma cell line); test: Cell death inducing effect on L363 cells, trypan blue staining
Procedure: (§1) L363 cells (myeloma cell line) were cultured under 5% CO2 at 37° C. The culture medium used RPMI-1640 medium with 100 μg/mL penicillin, 100 U/mL streptomycin and fetal bovine serum. L363 cells were seeded into 96-well plates and incubated with each concentration of the compounds was added, and cell viability was determined by the trypan blue staining.
(§2) For controls, only 0.5% DMSO (diluted in PBS) used to dissolve the compounds was added. For each concentration, each bar line is indicated by an arrow with the sign “n, a, 1, 2, 3, 4, 5, 6, 7, 8, 9, 10, 11, 12” from left to right. The “1, 3, 5, 7, 9, 11” are omitted from the graph, but the sign “1” shall be indicated by an arrow between the signs “a” and “2”, the sign “3” between the signs “2” and “4”, and other odd numbers shall likewise be indicated by arrows between even numbers before and after.
(§3) The sign “n” is the norathyriol (formula (n)) administration group, the sign “a” is the mangiferin 8a (formula (a)) administration group, the sign “1” is the yk-7 (formula (1)) administration group, the sign “2” is the yk-8-1 (formula (2)) administration group, the sign “3” is the yk-8-3 (formula (3)) administration group, the sign “4” is the M7 (formula (4)) administration group, the sign “5” is the M9 (formula (5)) administration group, the sign “6” is the M11 (formula (6)) administration group, the sign “7” is the M12 (formula (7)) administration group, the sign “8” is the M14 (formula (8)) administration group, the sign “9” is the M15 (formula (9)) administration group, the sign “10” is the M16 (formula (10)) administration group, the sign “11” is the M18 (formula (11)) administration group, the sign “12” is the M19 (formula (12)) administration group, respectively. The IC50 values for each compound is also listed in the upper right corner of the figure.

CD138 [2] = test: CD138 expression in L363 cells, flow cytometry; details: 10 days, concentration lower than the IC50 (0.005-50 μM), compared to the positive control
Procedure: As a control, compounds untreated L363 cells were seeded in 75 cm^2 flasks and incubated for 10 days at 37° C. and 5% CO2. L363 cells were seeded into 75 cm^2 flasks and pre-cultured for 4 h. After incubation, L363 cells were treated with 0.1 μM M7, 0.05 μM M9, 0.1 μM yk-7, 0.1 μM yk-8-3, 50 μM yk-8-1, 0.1 μM M11, 0.01 μM M12, 0.005 μM M14, 0.005 μM M15, 0.005 μM M16, 1 μM M18, and 1 μM M19 at final concentrations, and incubated for 10 days at 37° C. and 5% CO2. This added amount is a concentration lower than the IC50 of the above compounds for L363 cells. After 10 days of incubation, cells were stained with anti-CD138 antibody, a marker of multiple myeloma grade, and CD138 expression was measured using BD LSRFortessa.
Results are shown in FIG. 25, FIG. 26, FIG. 27 and FIG. 28. The horizontal axis represents the expression level of CD138 and the vertical axis represents the number of cells.

[3] = tested on: RPMI8226/B cells (bortezomib-resistant myeloma cell line); test: Cell death inducing effect on RPMI8226/B cells, trypan blue staining; details: RPMI8226/B (myeloma; bortezomib resistance), cell viability
Procedure: as §1, with “RPMI8226/B” for “L363”, “(bortezomib-resistant myeloma” for “(myeloma”
as §2, §3

[4] = tested on: Rec-1 cells (mantle cell lymphoma cell line); test: Cell death inducing effect on Rec-1 cells, trypan blue staining; details: Rec-1 (mantle cell lymphoma), cell viability
Procedure: as §1, with “Rec-1” for “L363”, “(mantle cell lymphoma” for “(myeloma”
as §2, §3

CD138 [5] = test: CD138 expression in KMS-28BM cells, flow cytometry; details: 10 days, concentration lower than the IC50 (0.005-50 μM), compared to the positive control
Procedure: As a control, compounds untreated KMS-28BM cells were seeded in 75 cm^2 flasks and incubated for 10 days at 37° C. and 5% CO2. KMS-28BM cells were seeded into 75 cm^2 flasks and pre-cultured for 4 h. After incubation, KMS-28BM cells were treated with […], 0.05 μM M9, 0.1 μM yk-7, 0.1 μM yk-8-3, 50 μM yk-8-1, 0.5 μM M11, […], 0.005 μM M14, 0.005 μM M15, 0.005 μM M16, 0.5 μM M18, and 0.5 μM M19 at final concentrations, and incubated for 10 days at 37° C. and 5% CO2. This added amount is a concentration lower than the IC50 of the above compounds for KMS-28BM cells. After 10 days of incubation, cells were stained with anti-CD138 antibody, a marker of multiple myeloma grade, and CD138 expression was measured using BD LSRFortessa.
Results are shown in FIG. 17, FIG. 18, FIG. 19 and FIG. 20. The horizontal axis represents the expression level of CD138 and the vertical axis represents the number of cells.

[6] = Homo sapiens, L-363, cell viability

Compound | CD20 expression level (CD20) | IC50 [1, 6] [nM] | CD138 expression levels (CD138 [2]) | IC50 ([3]; Homo sapiens, RPMI-8226) [nM] | IC50 ([4]; Homo sapiens, Rec1) [nM] | CD138 expression levels (CD138 [5]) | IC50 ([1]; cell viability) [nM] | IC50 [3] [nM] | IC50 [4] [nM]
CCCCC(=O)OC[C@H]1O[C@@H](c2c(O)cc3oc4cc(O)c(O)cc4c(=O)c3c2O)[C@H](OC(=O)CCCC)[C@@H](OC(=O)CCCC)[C@@H]1OC(=O)CCCC [yk-7, 2′,3′,4′,6′-tetra-O-valerylmangiferin] | significantly increased | 5700 | markedly reduced | 79 | 2600 | markedly reduced | – | – | –
CCCCC(=O)OC[C@H]1O[C@@H](c2c(O)cc3oc4cc(O)c(O)cc4c(=O)c3c2OC(=O)CCCC)[C@H](OC(=O)CCCC)[C@@H](OC(=O)CCCC)[C@@H]1OC(=O)CCCC [yk-8-3, 1,2′,3′,4′,6-penta-O-valerylmangiferin] | significantly increased | 1400 | markedly reduced | 231 | 3310 | markedly reduced | – | – | –
O=c1c2cc(O)c(O)cc2oc2cc(O)cc(O)c12 [norathyriol, reference compound] | – | 5800 | – | 632 | 15800 | – | – | – | –
CCCCC(=O)OC[C@H]1O[C@@H](c2c(OC(=O)CCCC)cc3oc4cc(OC(=O)CCCC)c(OC(=O)CCCC)cc4c(=O)c3c2OC(=O)CCCC)[C@H](OC(=O)CCCC)[C@@H](OC(=O)CCCC)[C@@H]1OC(=O)CCCC [yk-8-1, 1,3,2′,3′,4′,6,6′,7-octa-O-valerylmangiferin] | significantly increased | – | markedly reduced | – | – | markedly reduced | > 100000 | 6430 | > 100000
CCCC(=O)OC[C@H]1O[C@@H](c2c(O)cc3oc4cc(O)c(O)cc4c(=O)c3c2O)[C@H](OC(=O)CCC)[C@@H](OC(=O)CCC)[C@@H]1OC(=O)CCC [Compound M14, 2′,3′,4′,6′-tetra-O-butyrylmangiferin] | significantly increased | 29 | markedly reduced | 51 | 24 | markedly reduced | – | – | –
O=c1c2cc(O)c(O)cc2oc2cc(O)cc(OCCO)c12 [Compound M18, 3,6,7-trihydroxy-1-(2-hydroxyethoxy)-9H-xanthen-9-one] | significantly increased | 4700 | markedly reduced | 486 | 9120 | markedly reduced | – | – | –
CCC(=O)OC[C@H]1O[C@@H](c2c(O)cc3oc4cc(O)c(O)cc4c(=O)c3c2O)[C@H](OC(=O)CC)[C@@H](OC(=O)CC)[C@@H]1OC(=O)CC [Compound M9, 2′,3′,4′,6′-tetra-O-propionylmangiferin] | significantly increased | 620 | markedly reduced | 69 | 816 | markedly reduced | – | – | –
CC(C)(C)C(=O)OC[C@H]1O[C@@H](c2c(O)cc3oc4cc(O)c(O)cc4c(=O)c3c2O)[C@H](OC(=O)C(C)(C)C)[C@@H](OC(=O)C(C)(C)C)[C@@H]1OC(=O)C(C)(C)C [Compound M15, 2′,3′,4′,6′-tetra-O-pivaloylmangiferin] | significantly increased | 91 | markedly reduced | 71 | 32 | markedly reduced | – | – | –
CCCCO[C@@H]1[C@@H](OCCCC)[C@H](c2c(O)cc3oc4cc(O)c(O)cc4c(=O)c3c2O)O[C@H](COC(=O)CCC)[C@H]1OC(=O)CCC [Compound M16, 2′,3′-di-O-butyl-4′,6′-di-O-butyrylmangiferin] | significantly increased | 21 | markedly reduced | 42 | 20 | markedly reduced | – | – | –
1,2′,3′,4′,6-penta-O-propionylmangiferin [Compound 8a, reference compound] | – | – | – | – | – | – | 5600 | 892 | 22500
CCCC(=O)OC[C@H]1O[C@@H](c2c(O)cc3oc4cc(O)c(O)cc4c(=O)c3c2OC(=O)CCC)[C@H](OC(=O)CCC)[C@@H](OC(=O)CCC)[C@@H]1OC(=O)CCC [Compound M12, 1,2′,3′,4′,6-penta-O-butyrylmangiferin] | significantly increased | 89 | markedly reduced | 91 | 951 | markedly reduced | – | – | –
C=CCOc1cc(O)cc2oc3cc(O)c(O)cc3c(=O)c12 [Compound M19, 1-allyloxy-3,6,7-trihydroxy-9H-xanthen-9-one] | significantly increased | 7200 | markedly reduced | 758 | 21600 | markedly reduced | – | – | –
CCCC(=O)OC[C@H]1O[C@@H](c2c(OC(=O)CCC)cc3oc4cc(OC(=O)CCC)c(OC(=O)CCC)cc4c(=O)c3c2OC(=O)CCC)[C@H](OC(=O)CCC)[C@@H](OC(=O)CCC)[C@@H]1OC(=O)CCC [Compound M11, 1,3,2′,3′,4′,6,6′,7-octa-O-butyrylmangiferin] | significantly increased | – | markedly reduced | – | – | markedly reduced | 970 | 169 | 926
